PubChem BioAssay (NCI)
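These data come from cells grown in 96-well plates and exposed to compound for 48 hours at five concentrations. Abbreviation: GI50, concentration required for 50% inhibition of growth. The concentration for full growth arrest is given as TGI.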

Assays:
Test in all cases: NCI-60 cell line screen, 48 h
K-562 leukemia = tested on: K-562 leukemia
RXF 393 renal = tested on: RXF 393 renal
SNB-19 CNS = tested on: SNB-19 CNS
COLO 205 colon = tested on: COLO 205 colon
LOX IMVI melanoma = tested on: LOX IMVI melanoma
HS 578T breast = tested on: HS 578T breast
SNB-75 CNS = tested on: SNB-75 CNS
UO-31 renal = tested on: UO-31 renal
CCRF-CEM leukemia = tested on: CCRF-CEM leukemia
MALME-3M melanoma = tested on: MALME-3M melanoma
NCI-H226 lung = tested on: NCI-H226 lung
786-0 renal = tested on: 786-0 renal
NCI-H23 lung = tested on: NCI-H23 lung
HCC-2998 colon = tested on: HCC-2998 colon
HOP-62 NSCLC = tested on: HOP-62 NSCLC
SK-MEL-2 melanoma = tested on: SK-MEL-2 melanoma
ACHN renal = tested on: ACHN renal
MCF7 breast = tested on: MCF7 breast
UACC-62 melanoma = tested on: UACC-62 melanoma
HL-60(TB) leukemia = tested on: HL-60(TB) leukemia
OVCAR-3 ovarian = tested on: OVCAR-3 ovarian
MOLT-4 leukemia = tested on: MOLT-4 leukemia
SN12C renal = tested on: SN12C renal
DU-145 prostate = tested on: DU-145 prostate
HCT-116 colon = tested on: HCT-116 colon
NCI-H460 lung = tested on: NCI-H460 lung
OVCAR-4 ovarian = tested on: OVCAR-4 ovarian
NCI/ADR-RES ovarian = tested on: NCI/ADR-RES ovarian
A549 NSCLC = tested on: A549 NSCLC

Q: Which GI50 (K-562 leukemia) does the source give for `NC(=O)c1sc(-n2cnc3ccc(C(F)(F)F)cc32)cc1OCc1ccccc1Br` here?
A: The GI50 was 1060 nM.

Q: And the TGI (K-562 leukemia)?
A: Its TGI is over 25000 nM.

Q: And the GI50 (RXF 393 renal)?
A: The GI50 was 566 nM.

Q: What about the TGI (RXF 393 renal) of the same molecule?
A: Its TGI is 1940 nM.

Q: And the GI50 (SNB-19 CNS)?
A: Its GI50 is 2790 nM.

Q: What about the TGI (SNB-19 CNS) of the same molecule?
A: Its TGI is over 25000 nM.

Q: And the GI50 (COLO 205 colon)?
A: The GI50 was 802 nM.

Q: What about the TGI (COLO 205 colon) of the same molecule?
A: The TGI was 3440 nM.

Q: And the GI50 (LOX IMVI melanoma)?
A: The GI50 was 1500 nM.

Q: And the TGI (LOX IMVI melanoma)?
A: The TGI was over 25000 nM.

Q: And the GI50 (HS 578T breast)?
A: Its GI50 is 4220 nM.

Q: What about the TGI (HS 578T breast) of the same molecule?
A: The TGI was over 22800 nM.

Q: And the GI50 (SNB-75 CNS)?
A: The GI50 was 6110 nM.

Q: What about the TGI (SNB-75 CNS) of the same molecule?
A: Its TGI is over 25000 nM.

Q: And the GI50 (UO-31 renal)?
A: The GI50 was 5480 nM.

Q: And the TGI (UO-31 renal)?
A: The TGI was over 25000 nM.

Q: What about the GI50 (CCRF-CEM leukemia) of the same molecule?
A: The GI50 was 685 nM.

Q: And the TGI (CCRF-CEM leukemia)?
A: The TGI was over 25000 nM.

Q: And the GI50 (MALME-3M melanoma)?
A: Its GI50 is 9020 nM.

Q: What about the TGI (MALME-3M melanoma) of the same molecule?
A: The TGI was over 25000 nM.

Q: What about the GI50 (NCI-H226 lung) of the same molecule?
A: The GI50 was 1940 nM.

Q: What about the TGI (NCI-H226 lung) of the same molecule?
A: Its TGI is 18600 nM.

Q: What about the GI50 (786-0 renal) of the same molecule?
A: Its GI50 is 5310 nM.

Q: What about the TGI (786-0 renal) of the same molecule?
A: The TGI was over 25000 nM.

Q: And the GI50 (NCI-H23 lung)?
A: The GI50 was 1230 nM.

Q: And the TGI (NCI-H23 lung)?
A: Its TGI is over 25000 nM.

Q: What about the GI50 (HCC-2998 colon) of the same molecule?
A: The GI50 was 2400 nM.

Q: What about the TGI (HCC-2998 colon) of the same molecule?
A: Its TGI is over 23100 nM.

Q: And the GI50 (HOP-62 NSCLC)?
A: The GI50 was 916 nM.

Q: What about the TGI (HOP-62 NSCLC) of the same molecule?
A: Its TGI is over 10500 nM.

Q: And the GI50 (SK-MEL-2 melanoma)?
A: The GI50 was 1310 nM.

Q: And the TGI (SK-MEL-2 melanoma)?
A: The TGI was 11300 nM.

Q: What about the GI50 (ACHN renal) of the same molecule?
A: The GI50 was 5540 nM.

Q: What about the TGI (ACHN renal) of the same molecule?
A: Its TGI is over 25000 nM.

Q: What about the GI50 (MCF7 breast) of the same molecule?
A: The GI50 was 805 nM.

Q: What about the TGI (MCF7 breast) of the same molecule?
A: The TGI was over 6280 nM.

Q: And the GI50 (UACC-62 melanoma)?
A: Its GI50 is 1380 nM.

Q: And the TGI (UACC-62 melanoma)?
A: The TGI was 17900 nM.

Q: What about the GI50 (HL-60(TB) leukemia) of the same molecule?
A: The GI50 was 558 nM.

Q: What about the TGI (HL-60(TB) leukemia) of the same molecule?
A: The TGI was 1760 nM.

Q: What about the GI50 (OVCAR-3 ovarian) of the same molecule?
A: The GI50 was 762 nM.

Q: And the TGI (OVCAR-3 ovarian)?
A: The TGI was 2550 nM.

Q: And the GI50 (MOLT-4 leukemia)?
A: Its GI50 is 965 nM.

Q: What about the TGI (MOLT-4 leukemia) of the same molecule?
A: The TGI was over 25000 nM.

Q: And the GI50 (SN12C renal)?
A: Its GI50 is 3810 nM.

Q: What about the TGI (SN12C renal) of the same molecule?
A: The TGI was over 25000 nM.

Q: And the GI50 (DU-145 prostate)?
A: Its GI50 is 942 nM.

Q: And the TGI (DU-145 prostate)?
A: The TGI was 3890 nM.

Q: And the GI50 (HCT-116 colon)?
A: Its GI50 is 1430 nM.

Q: What about the TGI (HCT-116 colon) of the same molecule?
A: The TGI was over 25000 nM.

Q: What about the GI50 (NCI-H460 lung) of the same molecule?
A: Its GI50 is 946 nM.

Q: What about the TGI (NCI-H460 lung) of the same molecule?
A: Its TGI is over 15400 nM.

Q: And the GI50 (OVCAR-4 ovarian)?
A: The GI50 was 3210 nM.

Q: And the TGI (OVCAR-4 ovarian)?
A: The TGI was over 25000 nM.

Q: What about the GI50 (NCI/ADR-RES ovarian) of the same molecule?
A: Its GI50 is 764 nM.

Q: And the TGI (NCI/ADR-RES ovarian)?
A: The TGI was over 25000 nM.

Q: And the GI50 (A549 NSCLC)?
A: Its GI50 is 1570 nM.

Q: And the TGI (A549 NSCLC)?
A: The TGI was over 25000 nM.
